≈ marks a conversion by molar mass, not a printed value.
Tests used:
eLogD = type: physicochemical
Source text: (§1) In vitro ADME analysis for logD, kinetic solubility (PBS, pH 7.4), human liver microsome clearance and t1/2, rat hepatocyte clearance and t1/2, and protein binding in Albumax media (simulating the malaria parasite culture media) was all performed as per standard assays by TCG LifeSciences.

Rat hepatocyte clearance = type: in vitro ADME; details: rat hepatocytes; for half-life: read-out: Rat hepatocyte t1/2
Source text: as §1

Kinetic solubility = type: physicochemical; details: aqueous buffer, kinetic from dmso stock; PBS, pH 7.4; read-out: Kin sol pH 7.4
Source text: as §1

[1] = tested on: intracellular hemozoin formation in P. falciparum; assay: Cellular heme fractionation assay; type: cell-based, Plasmodium falciparum; details: intracellular fractions
Description: The assay set-up followed that described in^[30,32] optimised to a multi-well colourimetric assay for determining heme species in P. falciparum. Briefly, P. falciparum ring-staged parasites were incubated at 2xIC50 value of the test inhibitor for 24 hours. Thereafter, the incubated parasites (trophozoites) were harvested and isolated through various steps of a cellular fractionation process. The cellular fractionations allow for direct quantification of the three major heme species in the trophozoites, namely hemoglobin, free heme, and hemozoin. These heme species can be determined spectroscopically using the aqueous pyridine-ferrochrome method. This method is based on the principle that aqueous pyridine forms a low-spin complex with heme but not hemozoin, and since the absorbance obeys Beer’s law, it allows for the quantification of heme concentration in solution. The various heme fractions were recovered and measured as follows, after the P. falciparum trophozoite cells were harvested following exposure to probe inhibitors:
Water (100 µL) was added to lyse the cells, and the suspension was sonicated for 5 min. This was followed by the addition of 50 µL 0.2M HEPES buffer pH 7.5, and then centrifugation at 3600 rpm for 20 min. The resulting supernatant (containing hemoglobin) was then transferred into an adjacent set of wells on the same plate. To which 50 µL of each of 4% SDS, 0.3 M NaCl and 25% pyridine were added, respectively. Thereafter, 200 µL of the resulting solution ([…]) was transferred to a set of wells on a separate 96-well plate for UV-vis analysis^[32,33].
The pellet from the centrifugation step described above consists of heme and hemozoin. […] Then 50 µL each of HEPES 0.2 M pH 7.5, 0.3 M NaCl, and 25% pyridine were added, respectively. The mixture was centrifugated at 3600 rpm and the supernatant (250 µL) was transferred to adjacent wells on a separate 96-well plate. Thereafter, 150 µL of water was added and 200 µL of the mixture transferred to a set of wells on a separate plate for UV-vis analysis^[32,33].
To the remaining pellet, 50 µL each of water and 0.3 M NaOH were added, and the mixture was sonicated for 15 min. After 30 min of incubation at room temperature, 50 µL each of HEPES 0.2 M pH 7.5, 0.3 M HCl, and 25% pyridine were added, respectively. To the resulting mixture (250 µL), 150 µL of water was then added, and 200 µL of this was transferred to a set of wells on a separate 96-well plate for UV-vis analysis^[32,33].
Cell counts for the assay were performed using the flow cytometry method described in^[33]. Cell counting determines the number of trophozoites per sample and, therefore, allows for the quantification of the amount of heme found in each individual cell.

[2] = tested on: hepatocellular carcinoma (HepG2) cells; assay: Cytotoxicity counter-screening (MTT), HepG2; details: read-out: HepG2 CC50; 48 h, MTT
Description: HepG2 and CHO cells were maintained at 37 °C, under a humidified atmosphere of 5% CO2, in DMEM high glucose media (Gibco) supplemented with 10% heat-inactivated FBS and 1% (v/v) Penicillin-Streptomycin antibiotics. […] The supernatant was discarded, and the cell pellet was resuspended in 1 mL DMEM media for cell counting by Trypan Blue. To determine the toxicity, cells were resuspended and seeded at a concentration of 1x10^4 cells/well in a 96-well plate and incubated for 24 h^[9,10]. Cells were treated in duplicate with a 10-fold serial dilution starting at 100 ug/mL of inhibitor in new media. After 48 h incubation, the viable cells were measured using the MTT tetrazolium reduction assay, where sterile 25 µL of a 5 mg/mL MTT was added to each well and incubated for 4 h before the […] formazan crystals were dissolved with 100 µL DMSO (Merck) per well. The absorbance, a measure of intracellular reduction of MTT, was measured at 540 nm (Multiskan GO). Emetine (50 µM) was included as a positive drug control, and the background was subtracted from all data before being normalised to the untreated^[9,10].

recombinant PfArk3 = assay: KinaseSeeker three-hybrid split-luciferase competitive binding assay, PfArk3; set-up: species or system Plasmodium falciparum; details: single point 1 µM
Description: Supplementary Figure S3: (A) Single-point activity profile of selected inhibitors at 1 µM against recombinant PfArk-1 and PfArk-3 proteins, utilising a three-hybrid split-luciferase competitive binding assay (KinaseSeeker™).

Row | SMILES | eLogD pH 7.4 (eLogD) | Rat hepatocyte CLint (Rat hepatocyte clearance) | half-life (Rat hepatocyte clearance) | solubility kinetic (Kinetic solubility) | free heme level [1] | hemozoin level [1] | CC50 [2] | inhibition of PfArk3 (recombinant PfArk3)
1 | O=C(Nc1c[nH]nc1-c1nc2ccc(CN3CCOCC3)cc2[nH]1)NC1CC1 [AT83, AT9283] | 2.2 | 12.6 µL min^−1/10e6 cells | 0.917 h | 22.2 µM (≈ 8.47 µg/mL) | – | – | – | –
2 | COc1cc2c(Nc3ccc(NC(=O)c4ccccc4)cc3)ncnc2cc1OCCCN1CCOCC1 [ZM-39, ZM-447439] | – | – | – | – | significant increase in free heme | decrease in hemozoin formation | 26.5 µM | –
3 | COc1cc(N2CCC(N3CCN(C)CC3)CC2)ccc1Nc1ncc(Cl)c(Nc2ccccc2S(=O)(=O)C(C)C)n1 [TAE684, NVP-TAE684] | 3.4 | 3.5 µL min^−1/10e6 cells | 3.28 h | 198 µM (≈ 122 µg/mL) | significant increase in free heme | decrease in hemozoin formation | – | –
4 | CCN(CCO)CCCOc1ccc2c(Nc3cc(CC(=O)Nc4cccc(F)c4)n[nH]3)ncnc2c1 [AZD-1152, AZD-1152-HQPA] | – | – | – | – | – | – | 25.9 µM | –
5 | CCN1CCN(C(=O)Cc2ccc(Nc3ncc(F)c(Nc4ccc(C(=O)Nc5ccccc5Cl)cc4)n3)cc2)CC1 [AAi I, Aurora A Inhibitor I] | – | – | – | – | – | – | – | 40%
